Broadly, the IC50 is the concentration at which inhibition is half-maximal.

We go through 21 molecules from US9765018B2, “IDO inhibitors” (BRISTOL-MYERS SQUIBB COMPANY, priority 2013, dated 2017).

Structures are written as SMILES.

For experiment [1], the target named is T1, IDO (Homo sapiens (Human), UniProt P14902). Description: Kynurenine assay in IFN-γ-stimulated Hela cells. It counts as cell-based. The settings on record: 20 h, read-out: Hela Kyurenine (IC50). Summed up:
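Kynurenine in supernatant is read at 490 nm after Ehrlich reagent (10 min RT), following TCA stop and 30 min at 50° C hydrolysis. Before that, Hela cells in phenol red-free RPMI/10% FBS were co-treated 20 h at 37° C with 100 ng/mL IFN-γ and compound (30 μM top, 3-fold series to 1.5 nM).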

In another experiment the target is Human IDO1 (Homo sapiens (Human), UniProt P14902). Description: IDO Kynurenine Assay with Human IDO1/HEK293 Cells. Format: cell-based. The settings on record: HEK293 cells with human IDO1; read-out: HEK human IDO-1 (IC50). How it is done:
IDO Kynurenine Assay with Human IDO1/HEK293 Cells
Human IDO1/HEK293 cells were seeded at 10,000 cells per 50 uL per well with RPMI/phenol red free media contains 10% FBS in a 384-well black wall clear bottom tissue culture plate (Matrix Technologies LLC) 125 nL of certain concentration of compound was then added to each well using ECHO liquid handling systems. The cells were incubated for 20 hours in 37° C. incubator with 5% CO2.
The compound treatments were stopped by adding Trichloroacetic Acid (Sigma-Aldrich) to a final concentration at 0.2%. The cell plate was further incubated at 50° C. for 30 minute. The equal volume supernatant (20 uL) and 0.2% (w/v) Ehrlich reagent (4-dimethylaminobenzaldehyde, Sigma-Aldrich) in glacial acetic acid were mixed in a new clear bottom 384-well plate. This plate was then incubated at room temperature for 30 minute. The absorbance at 490 nm was measured on Envision plate reader.

In experiment [2] the target is T1, IDO. Description: LLE_IDO_ABS_DR (IDO assay, method not described).

T1 sequence (P14902 whole entry): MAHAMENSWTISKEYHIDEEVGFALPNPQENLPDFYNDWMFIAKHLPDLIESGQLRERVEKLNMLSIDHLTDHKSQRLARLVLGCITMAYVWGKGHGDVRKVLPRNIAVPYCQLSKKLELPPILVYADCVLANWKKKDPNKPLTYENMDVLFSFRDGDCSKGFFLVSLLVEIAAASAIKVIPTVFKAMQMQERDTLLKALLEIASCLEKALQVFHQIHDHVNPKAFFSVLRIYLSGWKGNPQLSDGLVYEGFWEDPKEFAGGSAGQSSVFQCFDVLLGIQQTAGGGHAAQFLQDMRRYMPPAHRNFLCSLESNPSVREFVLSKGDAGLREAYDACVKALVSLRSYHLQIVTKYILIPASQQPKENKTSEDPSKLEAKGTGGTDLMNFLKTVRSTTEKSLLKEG
Chain of Human IDO1 (P14902 whole entry): as above

As to `COc1ccc(-c2ccc(Oc3cccc4c3CCCC4)c(NC(=O)Nc3ccccc3Cl)c2)cc1C(=O)O` [Example 114, 3′-(3-(2-chlorophenyl)ureido)-4-methoxy-4′-(5,6,7,8-tetrahydronaphthalen-1-yloxy)biphenyl-3-carboxylic acid], the figures for the half-inhibitory concentration (IC50) at IDO [1], at Human IDO1 and on IDO [2] were 20 nM, 120 nM and 100 nM, respectively.

For `COc1ccc(-c2ccc(Oc3cccc4c3CCCC4)c(NC(=O)Nc3ccccc3C)c2)cc1C(=O)O` [Example 115, 4-methoxy-4′-(5,6,7,8-tetrahydronaphthalen-1-yloxy)-3′-(3-o-tolylureido)biphenyl-3-carboxylic acid], the figures for the concentration for half-maximal inhibition (IC50) at IDO [1], at Human IDO1 and on IDO [2] were 50 nM, 240 nM and 200 nM, respectively.

Take `COc1ccc(-c2ccc(Oc3cccc4c3CCCC4)c(NC(=O)Nc3cccc(C)c3)c2)cc1C(=O)O` [Example 116, 4-methoxy-4′-(5,6,7,8-tetrahydronaphthalen-1-yloxy)-3′-(3-m-tolylureido)biphenyl-3-carboxylic acid]: the IC50 was 100 nM on IDO [1], 790 nM on Human IDO1 and 780 nM against IDO [2].

As for `COc1ccc(-c2ccc(Oc3cccc(C)c3C)c(NC(=O)Nc3ccccc3Cl)c2)cc1C(=O)O` [Example 120, 3′-(3-(2-chlorophenyl)ureido)-4′-(2,3-dimethylphenoxy)-4-methoxybiphenyl-3-carboxylic acid], the concentration for half-maximal inhibition (IC50) at IDO [1] is 80 nM; on Human IDO1, 260 nM; at IDO [2], 430 nM.

With `COc1ccc(-c2ccc(Oc3cccc(C)c3C)c(NC(=O)Nc3cccc(C)c3)c2)cc1C(=O)O` [Example 122, 4′-(2,3-dimethylphenoxy)-4-methoxy-3′-(3-m-tolylureido)biphenyl-3-carboxylic acid], the IC50 worked out at 80 nM on IDO [1], 660 nM at Human IDO1 and 250 nM against IDO [2].

Take `COc1ccc(-c2ccc(Oc3cccc(C)c3C)c(NC(=O)Nc3ccc(C)cc3)c2)cc1C(=O)O` [Example 123, 4′-(2,3-dimethylphenoxy)-4-methoxy-3′-(3-p-tolylureido)biphenyl-3-carboxylic acid]: the IC50 came to 160 nM at IDO [1], 680 nM on Human IDO1 and 730 nM against IDO [2].

As to `COc1ccc(-c2ccc(Oc3ccccc3C3CC3)c(NC(=O)Nc3ccc(C)cc3)c2)cc1C(=O)O` [Example 127, 4′-(2-cyclopropylphenoxy)-4-methoxy-3′-(3-p-tolylureido)biphenyl-3-carboxylic acid], the half-inhibitory concentration (IC50) on IDO [1] was determined as 490 nM; at Human IDO1 it was 3290 nM; against IDO [2] it was 2430 nM.

Consider `COc1ccc(-c2ccc(Oc3cccc4ccccc34)c(NC(=O)Nc3ccccc3C)c2)cc1C(=O)O` [Example 129, 4-methoxy-4′-(naphthalen-1-yloxy)-3′-(3-o-tolylureido)biphenyl-3-carboxylic acid], for which the IC50 stood at 70 nM at IDO [1], 290 nM on Human IDO1 and 300 nM against IDO [2].

`COc1ccc(-c2ccc(Oc3cccc4ccccc34)c(NC(=O)Nc3ccc(C)cc3)c2)cc1C(=O)O` [Example 131, 4-methoxy-4′-(naphthalen-1-yloxy)-3′-(3-p-tolylureido)biphenyl-3-carboxylic acid]: the IC50 at IDO [1] was 160 nM; on Human IDO1, 770 nM; at IDO [2], 770 nM.

Take `C#CCOc1cccc(Oc2ccc(-c3ccc(OC)c(C(=O)O)c3)cc2NC(=O)Nc2ccccc2Cl)c1C` [Example 136, 3′-(3-(2-chlorophenyl)ureido)-4-methoxy-4′-(2-methyl-3-(prop-2-ynyloxy)phenoxy)biphenyl-3-carboxylic acid]: the IC50 turned out to be 20 nM on IDO [1], 70 nM on Human IDO1 and 140 nM at IDO [2].

For the molecule `C#CCOc1cccc(Oc2ccc(-c3ccc(OC)c(C(=O)O)c3)cc2NC(=O)Nc2ccc(C)cc2)c1C` [Example 141, 4-methoxy-4′-(2-methyl-3-(prop-2-ynyloxy)phenoxy)-3′-(3-p-tolylureido)biphenyl-3-carboxylic acid], the half-inhibitory concentration (IC50) was found to be 50 nM on IDO [1], 420 nM on Human IDO1 and 330 nM on IDO [2].

Consider `COc1ccc(-c2ccc(Oc3cccc4c3CCC4)c(NC(=O)Nc3ccccc3Cl)c2)cc1C(=O)O` [Example 142, 3′-(3-(2-chlorophenyl)ureido)-4′-(2,3-dihydro-1H-inden-4-yloxy)-4-methoxybiphenyl-3-carboxylic acid], for which the IC50 turned out to be 40 nM at IDO [1], 380 nM at Human IDO1 and 160 nM against IDO [2].

Take `COc1ccc(-c2ccc(Oc3cccc4c3CCC4)c(NC(=O)Nc3ccccc3C)c2)cc1C(=O)O` [Example 143, 4′-(2,3-dihydro-1H-inden-4-yloxy)-4-methoxy-3′-(3-o-tolylureido)biphenyl-3-carboxylic acid]: the values for the IC50 on IDO [1], at Human IDO1 and against IDO [2] were 50 nM, 530 nM and 200 nM, respectively.

Turning to `COc1ccc(-c2ccc(Oc3cccc4c3CCC4)c(NC(=O)Nc3ccc(C)cc3)c2)cc1C(=O)O` [Example 145, 4′-(2,3-dihydro-1H-inden-4-yloxy)-4-methoxy-3′-(3-p-tolylureido)biphenyl-3-carboxylic acid], the figures for the concentration for half-maximal inhibition (IC50) on IDO [1], at Human IDO1 and at IDO [2] were 280 nM, 1590 nM and 790 nM, respectively.

Regarding `COc1ccc(-c2ccc(Oc3ccc4c(c3)CCCC4)c(NC(=O)Nc3ccc(C)cc3)c2)cc1C(=O)O` [Example 148, 4-methoxy-4′-(5,6,7,8-tetrahydronaphthalen-2-yloxy)-3′-(3-p-tolylureido)biphenyl-3-carboxylic acid], the concentration for half-maximal inhibition (IC50) stood at 260 nM at IDO [1], 2420 nM at Human IDO1 and 490 nM against IDO [2].

`COc1ccc(-c2ccc(Oc3cccc4c3CCCC4)c(NC(=O)Nc3ccccc3)c2)cc1C(=O)O` [Example 151, 4-methoxy-3′-(3-phenylureido)-4′-(5,6,7,8-tetrahydronaphthalen-1-yloxy)biphenyl-3-carboxylic acid]: the 50% inhibitory concentration (IC50) at IDO [1] is 60 nM; on Human IDO1, 1120 nM; against IDO [2], 300 nM.

As for `COc1ccc(-c2ccc(Oc3cccc4c3CCCC4)c(NC(=O)Nc3ccccc3F)c2)cc1C(=O)O` [Example 152, 3′-(3-(2-fluorophenyl)ureido)-4-methoxy-4′-(5,6,7,8-tetrahydronaphthalen-1-yloxy)biphenyl-3-carboxylic acid], the 50% inhibitory concentration (IC50) on IDO [1] was 50 nM; at Human IDO1, 450 nM; on IDO [2], 290 nM.

Turning to `COc1ccc(-c2ccc(Oc3cccc4c3CCCC4)c(NC(=O)Nc3ccc(C)c(C)c3)c2)cc1C(=O)O` [Example 153, 3′-(3-(3,4-dimethylphenyl)ureido)-4-methoxy-4′-(5,6,7,8-tetrahydronaphthalen-1-yloxy)biphenyl-3-carboxylic acid], the IC50 on IDO [1] was 40 nM; at Human IDO1, 920 nM; on IDO [2], 530 nM.

Regarding `Cc1cccc(NC(=O)Nc2cc(-c3cccc(C(=O)O)c3)ccc2Oc2ccccc2C(C)(C)C)c1` [Example 225, 4′-(2-tert-butylphenoxy)-3′-(3-m-tolylureido) biphenyl-3-carboxylic acid], the results for the IC50 at IDO [1], on Human IDO1 and against IDO [2] were 570 nM, 7650 nM and 2900 nM, respectively.

With `Cc1ccc(NC(=O)Nc2cc(-c3cccc(C(=O)O)c3)ccc2Oc2cccc(Cl)c2)cc1` [Example 245, 4′-(3-chlorophenoxy)-3′-(3-p-tolylureido) biphenyl-3-carboxylic acid], the half-inhibitory concentration (IC50) on IDO [1] was found to be 250 nM; at Human IDO1 it was 6580 nM; against IDO [2], 2250 nM.

Regarding `Cc1ccccc1NC(=O)Nc1cc(-c2cc(F)cc(C(=O)O)c2)ccc1Oc1ccccc1C(C)(C)C` [Example 254, 4′-(2-tert-butylphenoxy)-5-fluoro-3′-(3-o-tolylureido) biphenyl-3-carboxylic acid], the IC50 was 350 nM on IDO [1], 1620 nM on Human IDO1 and 1160 nM on IDO [2].
